Data set [1] relates to animals (rats, cats, dogs, pigs and monkeys). As to conditions: fed to animals over a period of 60 weeks; cited from earlier work.
The subject of data set [2] is radiation-induced oral mucositis (mucosal ulceration) in the tongue of rats. The data set can be described thus: Radiation-induced oral mucositis in rat tongue, single dose studies (Example 2). It is filed as in vivo, Sprague-Dawley rats. As to conditions: single dose irradiation of rat tongue; 0.5 ml per day oral gavage; placebo water. The text has this:
The animals were maintained, and all experimental procedures performed in compliance with the Animal (Scientific Procedures) Act 1986. While under anaesthesia the animal's tongue was slightly extended outside and a region of the underside of the tongue was irradiated in situ with single doses of 2.27 MeV β-rays from a 5 mm or 11 mm diameter ^90Sr/^90Y plaque. The dose-rate of the 5 mm ^90Sr/^90Y plaque was ˜10 Gy/min and that of 11 mm source was ˜3 Gy/min at the surface of the mucus membrane 5 mm source was used for single dose study and 11 mm source was used for fractionated studies. The irradiation was carried out by simply positioning the sealed ^90Sr/^90Y plaque in contact with the surface of the tongue. The tongue was stretched gently and radioactive source was placed with a uniform pressure in all cases in order to avoid any local hypoxia. […]
A total of 144 rats were used for this part of study. […] From the day after irradiation, until any acute radiation-induced oral mucosal lesion had healed, the animals' tongues were assessed daily for the presence of radiation-induced mucositis (mucosal ulceration) under light anaesthesia, maintained with a 1.5% Halothane, oxygen mixture. […] The dose modification factor (DMF), defined as the ratio of the dose of radiation to cause mucositis in ‘active’ agent group to that in ‘placebo’ group, was calculated. […]

The structures appear in SMILES notation.

As for `COc1cc(/C=C/C(=O)CC(=O)/C=C/c2ccc(O)c(OC)c2)ccc1O` [Curcumin, diferuloylmethane], the “Doses that have shown no toxicity” value in data set [1] is 500-5000 mg/kg body weight.

For `Cc1c(C)c2c(c(C)c1O)CC[C@@](C)(CCC[C@H](C)CCC[C@H](C)CCCC(C)C)O2` [α-tocopherol, 5,7,8-trimethyltocol], the “Dose modification factor (DMF), active agent group vs placebo group” value in data set [2] stood at 1.05.
